Results from publication PMC6324813, “Biological evaluation of isoflavonoids from Genista halacsyi using estrogen-target cells: Activities of glucosides compared to aglycones” (PLoS ONE, 2019).

Columns and labels:
Ishikawa cells = assay: Induction of AlkP expression in Ishikawa cells; assay type: cell-based, human; conditions: for Induction of Alkaline Phosphatase Expression (Ishikawa cells) AUC (%): % of AUC of luciferase response of archetypal 3, 4, 5 or 8 up to 0.3, 10, 1.0 and 3.0 μM; for EC (25% of 0.1 nM E2 effect) / activation at 1 µM / EC50: Homo sapiens, Ishikawa; for EC (25% of 0.1 nM E2 effect) / activation at 1 µM: 72 h; for EC (25% of 0.1 nM E2 effect): concentration required to achieve 25% of the effect of 0.1 nM E2, read-out: Induction of Alkaline Phosphatase Expression (Ishikawa cells) EC25E2; for activation at 1 µM: read-out: Induction of AlkP expression (Ishikawa cells) Agonism at 1μΜ (% of 0.1nM E2); for EC50: concentration required to achieve 50% of the effect of 0.1 nM E2, read-out: Induction of Alkaline Phosphatase Expression (Ishikawa cells) EC50E2; for AlkP-inducing agonist effect compared to the effect of 0.1 nM estradiol: isoflavonoids 1 μM, statistically significant effects
Procedure, shortened: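 Ishikawa cells at 12,000 per well were grown in phenol-red-free MEM with 1 μg/mL insulin and 5% DCC-FBS, as an estrogenic read-out. AlkP activity versus isoflavonoid concentration was curve-fitted and AUC derived. AUC was expressed as % of the luciferase-response AUC of the matching archetypal isoflavone.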

TNFα mRNA = assay: LPS-induced TNFα mRNA expression in RAW 264.7 cells (RT-qPCR); assay type: cell-based, mouse; conditions: for reduction of LPS induction of TNFα mRNA expression: 3 μM, LPS 100 ng/ml 1 h; for suppression of LPS-stimulated TNFα mRNA expression: pre-incubated with 3 μM isoflavonoid prior to the stimulation
Method: To assess TNFα mRNA expression, RAW 264.7 cells were plated in 6-well plates in alpha-MEM medium supplemented with 10% DCC-FBS, at a density of 300,000 cells per well, maintained in culture for 72 h and then exposed to vehicle (0.3% DMSO) or 3 μΜ test compound for 20 min or 24 h prior to stimulation with 100 ng/ml lipopolysaccharide (Sigma L4391) for 1 h. Extraction of total RNA, reverse transcription (RT) and quantitative PCR (qPCR) analysis of mRNA expression levels were performed as previously described. Relative gene expression levels were calculated by the comparative Ct method using the formula 2^(-ΔCt). Tumor necrosis factor alpha (TNFα) mRNA levels were normalized to the respective levels of […] (GAPDH). Test compound effects on the relative number of viable cells were assessed using crystal violet and a Safire II microplate reader (Tecan) as previously described. […] The following primers were used: […]

ERβ [1] = target: T1, ERβ (Homo sapiens, UniProt Q92731); assay: ER binding competitor assay (fluorescent estrogen ES2), ERβ; design: purchased Invitrogen
T1 sequence (Q92731 whole entry): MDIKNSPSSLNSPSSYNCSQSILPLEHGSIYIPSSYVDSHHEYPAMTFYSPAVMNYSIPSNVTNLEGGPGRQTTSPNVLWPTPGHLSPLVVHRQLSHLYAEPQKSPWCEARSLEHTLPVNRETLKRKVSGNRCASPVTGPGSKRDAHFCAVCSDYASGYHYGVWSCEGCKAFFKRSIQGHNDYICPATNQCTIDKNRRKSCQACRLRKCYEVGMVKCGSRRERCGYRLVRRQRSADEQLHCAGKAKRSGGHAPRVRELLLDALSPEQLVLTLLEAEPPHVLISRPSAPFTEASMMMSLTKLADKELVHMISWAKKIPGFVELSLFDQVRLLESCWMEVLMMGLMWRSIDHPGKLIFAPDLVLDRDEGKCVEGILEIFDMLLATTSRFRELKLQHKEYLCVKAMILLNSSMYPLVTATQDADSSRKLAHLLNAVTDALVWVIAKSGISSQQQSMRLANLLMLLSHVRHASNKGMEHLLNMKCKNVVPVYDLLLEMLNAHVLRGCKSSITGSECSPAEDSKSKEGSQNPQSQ

ERα [2] = target: T2, ERα (Homo sapiens, UniProt P03372); design: purchased Invitrogen; conditions: cited from earlier work
T2 sequence (P03372 1-595): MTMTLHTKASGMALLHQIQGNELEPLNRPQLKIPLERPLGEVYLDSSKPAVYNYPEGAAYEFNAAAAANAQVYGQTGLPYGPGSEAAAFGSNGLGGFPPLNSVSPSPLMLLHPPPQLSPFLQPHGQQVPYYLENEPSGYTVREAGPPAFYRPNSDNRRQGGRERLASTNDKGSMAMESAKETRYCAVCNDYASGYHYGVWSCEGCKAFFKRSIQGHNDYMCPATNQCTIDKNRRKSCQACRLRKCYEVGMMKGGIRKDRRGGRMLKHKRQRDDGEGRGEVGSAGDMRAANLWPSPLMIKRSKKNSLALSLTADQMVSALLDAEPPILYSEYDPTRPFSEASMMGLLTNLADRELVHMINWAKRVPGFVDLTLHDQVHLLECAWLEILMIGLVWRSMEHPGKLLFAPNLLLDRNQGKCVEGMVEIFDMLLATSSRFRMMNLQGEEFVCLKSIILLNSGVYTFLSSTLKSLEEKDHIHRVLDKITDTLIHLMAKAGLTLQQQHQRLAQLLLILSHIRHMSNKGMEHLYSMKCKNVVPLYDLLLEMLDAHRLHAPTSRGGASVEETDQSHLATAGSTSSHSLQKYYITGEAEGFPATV

ERβ [3] = target: T1, ERβ; design: purchased Invitrogen; conditions: cited from earlier work
ERα [4] = target: T2, ERα; assay: ERE-dependent luciferase gene transcription in MCF-7:D5L cells; assay type: cell-based; design: MCF-7:D5L cells, a clone of MCF-7 cells stably transfected with an Estrogen Response Element (ERE)-endowed reporter plasmid; endogenous in cells; host or cells: MCF-7:D5L (MCF-7 clone carrying pERE-Gl-Luciferase)
Method: Assessment of ER/ERE-dependent luciferase gene transcription in MCF-7:D5L (express ERα) and HEK:ERβ cells (express ERβ) and determination of ER transcriptional agonism was carried as already described. Briefly, the cells were plated in 96-well plates at a density of 12,000 cells per well in phenol-red-free MEM (MCF-7:D5L cells) or phenol-red-free DMEM (HEK:ERβ cells) supplemented with 1 μg/mL insulin and 5% DCC-FBS. […] The AUC of the isoflavonoids of each group were then expressed as % of the AUC of the respective archetypal isoflavone. Since AUC data combine the efficacy as well as the potency of cell response into a single parameter, the %AUC data were considered here as a more reliable measure of relative ER/ERE-dependent luciferase expression of the test compounds.

Compound: O=c1c(-c2ccc(O)cc2)coc2cc(O[C@@H]3O[C@H](CO)[C@@H](O)[C@H](O)[C@H]3O)cc(O)c12 [Compound 12, 7-O-β-D-glucopyranosyl-genistein]
- Induction of Alkaline Phosphatase Expression (Ishikawa cells) AUC (%) (Ishikawa cells): 110±10%
- EC (25% of 0.1 nM E2 effect) (Ishikawa cells): 0.05 ± 0.01 µM
- activation at 1 µM (Ishikawa cells): 101 ± 5%
- EC50 (Ishikawa cells): 70 ± 10 nM
- AlkP-inducing agonist effect compared to the effect of 0.1 nM estradiol (Ishikawa cells): very similar to estradiol
- reduction of LPS induction of TNFα mRNA expression (TNFα mRNA; pre-treatment 24 h): 20%
- suppression of LPS-stimulated TNFα mRNA expression (TNFα mRNA): marginally effective
- RBAβ / RBAα (ERβ [1]; ERβ-binding selectivity): 1.75
- RBAβ (ERβ [1]; RBA = (IC50 estradiol/IC50 compound) × 100, ES2 1 nM, estradiol set equal to 100): 0.07 ± 0.02
- mean value (and the range) of previously reported RBAα (ERα [2]): < 0.01
- mean value (and the range) of previously reported RBAβ (ERβ [3]): < 0.01

Compound: O=c1c(-c2ccc(OC3O[C@H](CO)[C@@H](O)[C@H](O)[C@H]3O)cc2)coc2cc(OC3O[C@H](CO)[C@@H](O)[C@H](O)[C@H]3O)cc(O)c12 (stereo partly shown) [Compound 11, 7,4΄-di-O-glucopyranosylgenistein]
- Induction of Alkaline Phosphatase Expression (Ishikawa cells) AUC (%) (Ishikawa cells): 66±5%
- Ratio of AUC (AlkP / Lucif) (Ishikawa cells; AUCAlkP / AUCluciferase): 0.88±0.06
- EC (25% of 0.1 nM E2 effect) (Ishikawa cells): 0.09 ± 0.01 µM
- activation at 1 µM (Ishikawa cells): 105 ± 9%
- EC50 (Ishikawa cells): 160 ± 20 nM
- AlkP-inducing agonist effect compared to the effect of 0.1 nM estradiol (Ishikawa cells): very similar to estradiol
- reduction of LPS induction of TNFα mRNA expression (TNFα mRNA; pre-treatment 20 min): 30%
- reduction of LPS induction of TNFα mRNA expression (TNFα mRNA; pre-treatment 24 h): 29%
- suppression of LPS-stimulated TNFα mRNA expression (TNFα mRNA): ~ 30%
- Induction of ERE-dependent Luciferase Transcription (MCF-7:D5L cells) AUC (%) (ERα [4]; % of AUC of luciferase response of archetypal 3, 4, 5 or 8 up to 0.3, 10, 1.0 and 3.0 μM): 75±6%
- Induction of luciferase gene transcription through ERα, MCF-7:D5L cells, Agonism at 1μΜ (% of 0.1nM E2) (ERα [4]; compounds 1 μM, estradiol 0.1 nM, 18 h): 114 ± 4 (Full) % of 0.1nM E2
- Induction of ERE-dependent Luciferase Transcription (MCF-7:D5L cells) EC25E2 (ERα [4]; concentration required to achieve 25% of the effect of 0.1 nM E2): 40 ± 10 nM
- EC50 (ERα [4]; concentration required to achieve 50% of the effect of 0.1 nM E2, read-out: Induction of ERE-dependent Luciferase Transcription (MCF-7:D5L cells) EC50E2): 150 ± 30 nM
- ERα-dependent gene transcription agonist effect compared to the effect of 0.1 nM estradiol (ERα [4]; isoflavonoids 1 μM, statistically significant effects): very similar to estradiol
